Test system: marine bacteria (26 strains)
Test: Disk inhibition assay
Type: cell-based, marine bacteria isolated from Singapore fouling communities
Conditions: for zone of inhibition at 2 µg/disc: 2 μg per disc; for zone of inhibition at 10 µg/disc: 10 μg per disc; for zone of inhibition at 5 µg/disc: 5 μg per disc; for zone of inhibition at 15 µg/disc: 15 μg per disc
Description: Preparation of Drugs onto Disks for Assay
The non-antibiotic pharmaceuticals of Table 1 were prepared in the following way. A tablet with a known amount of active ingredient (as stated in the product information) was ground in a mortar and pestle and suspended in sterile deionized water to a concentration of 2 mg ml^−1. These samples were sonicated for at least 1 min. […] The two halves of the capsule were separated and the powder released straight into a bottle and suitable amount of water added to make a concentration of 2 mg ml^−1.
As a comparison to the pharmaceuticals, to determine the susceptibility of the bacterial isolates to conventional antibiotics, commercially available antibiotic discs were used. Antibiotic discs (Oxoid® CT series) containing Ampicillin [Amp] (2 and 10 μg), Erythromycin [Ery] (5 and 15 μg), Streptomycin [Str] (10 and 25 μg) and Tetracycline [Tet] (5 and 30 μg) were placed on lawns of the bacterial strains inoculated as described below.
Sterile swabs dipped into the cultures were used to inoculate Marine Agar plates with a bacterial lawn by smearing the culture over the surface. After inoculating the plates, discs with antibiotics, pharmaceuticals or control blanks were placed on each plate. Each concentration of antibiotic or pharmaceutical was tested with three replicates on three separate occasions. After the disks were placed on the agar surface, plates were incubated overnight in the dark at 30° C. After incubation, plates were examined for zones of inhibition or clearing around control and treated disks. The diameter of any zone of clearing or inhibition was measured using Vernier calipers.
The assay was repeated three times with three replicates for each concentration used, each time.

In the case of CC1(C)S[C@@H]2[C@H](NC(=O)[C@H](N)c3ccccc3)C(=O)N2[C@H]1C(=O)O [Amp, ampicillin], the zone of inhibition at 2 µg/disc (strain 1 (Rhodovulum)) is reported as 10 to 19 mm, the zone of inhibition at 10 µg/disc (strain 1 (Rhodovulum)) is reported as 20 to 29 mm and the zone of inhibition at 2 µg/disc (strain 2 (Erythrobacter)) is reported as < 6 mm. For the same compound, the zone of inhibition at 10 µg/disc (strain 2 (Erythrobacter)) was 10 to 19 mm, the zone of inhibition at 2 µg/disc (strain 3 (Erythrobacter)) was < 6 mm and the zone of inhibition at 10 µg/disc (strain 3 (Erythrobacter)) was < 6 mm. The zone of inhibition at 2 µg/disc (strain 4 (Bacillus)) was > 40 mm, the zone of inhibition at 10 µg/disc (strain 4 (Bacillus)) was > 40 mm and the zone of inhibition at 2 µg/disc (strain 6 (Vibrio)) was < 6 mm. For the same compound, the zone of inhibition at 10 µg/disc (strain 6 (Vibrio)) was < 6 mm, the zone of inhibition at 2 µg/disc (strain 7 (Vibrio)) was 6 to 9 mm and the zone of inhibition at 10 µg/disc (strain 7 (Vibrio)) was 10 to 19 mm. For the same compound, the zone of inhibition at 2 µg/disc (strain 8 (Bacillus)) was 20 to 29 mm, the zone of inhibition at 10 µg/disc (strain 8 (Bacillus)) was 30 to 39 mm and the zone of inhibition at 2 µg/disc (strain 9 (Bacillus)) was 10 to 19 mm. The zone of inhibition at 10 µg/disc (strain 9 (Bacillus)) was 30 to 39 mm, the zone of inhibition at 2 µg/disc (strain 10 (Halobacillus)) was 30 to 39 mm and the zone of inhibition at 10 µg/disc (strain 10 (Halobacillus)) was > 40 mm. For the same compound, the zone of inhibition at 2 µg/disc (strain 11 (Pseudomonas)) was 20 to 29 mm, the zone of inhibition at 10 µg/disc (strain 11 (Pseudomonas)) was 30 to 39 mm and the zone of inhibition at 2 µg/disc (strain 12 (Gordonia)) was < 6 mm. The zone of inhibition at 10 µg/disc (strain 12 (Gordonia)) was < 6 mm, the zone of inhibition at 2 µg/disc (strain 13 (Bacillus)) was 10 to 19 mm and the zone of inhibition at 10 µg/disc (strain 13 (Bacillus)) was 10 to 19 mm. It also gave a zone of inhibition at 2 µg/disc (strain 14 (Vibrio)) of 10 to 19 mm, a zone of inhibition at 10 µg/disc (strain 14 (Vibrio)) of 20 to 29 mm and a zone of inhibition at 2 µg/disc (strain 16 (Pseudoalteromonas)) of 6 to 9 mm. The zone of inhibition at 10 µg/disc (strain 16 (Pseudoalteromonas)) was 10 to 19 mm, the zone of inhibition at 2 µg/disc (strain 17 (Gordonia)) was < 6 mm and the zone of inhibition at 10 µg/disc (strain 17 (Gordonia)) was < 6 mm. The zone of inhibition at 2 µg/disc (strain 18 (Microbacterium)) was 20 to 29 mm, the zone of inhibition at 10 µg/disc (strain 18 (Microbacterium)) was 20 to 29 mm and the zone of inhibition at 2 µg/disc (strain 19 (Erythrobacter)) was 20 to 29 mm. The zone of inhibition at 10 µg/disc (strain 19 (Erythrobacter)) was 20 to 29 mm, the zone of inhibition at 2 µg/disc (strain 20) was < 6 mm and the zone of inhibition at 10 µg/disc (strain 20) was 20 to 29 mm. For the same compound, the zone of inhibition at 2 µg/disc (strain 21) was < 6 mm, the zone of inhibition at 10 µg/disc (strain 21) was < 6 mm and the zone of inhibition at 2 µg/disc (strain 22) was 10 to 19 mm. The zone of inhibition at 10 µg/disc (strain 22) was 10 to 19 mm, the zone of inhibition at 2 µg/disc (strain 24) was 30 to 39 mm and the zone of inhibition at 10 µg/disc (strain 24) was > 40 mm. For the same compound, the zone of inhibition at 2 µg/disc (strain 26) was 10 to 19 mm, the zone of inhibition at 10 µg/disc (strain 26) was 10 to 19 mm and the zone of inhibition at 2 µg/disc (strain 27) was 20 to 29 mm. For the same compound, the zone of inhibition at 10 µg/disc (strain 27) was 30 to 39 mm, the zone of inhibition at 2 µg/disc (strain 28) was 6 to 9 mm and the zone of inhibition at 10 µg/disc (strain 28) was 10 to 19 mm. For the same compound, the zone of inhibition at 2 µg/disc (strain 29) was 30 to 39 mm, the zone of inhibition at 10 µg/disc (strain 29) was 30 to 39 mm and the zone of inhibition at 2 µg/disc (strain 30) was 30 to 39 mm. It also gave a zone of inhibition at 10 µg/disc (strain 30) of 20 to 29 mm.
For CC[C@H]1OC(=O)[C@H](C)[C@@H](O[C@H]2C[C@@](C)(OC)[C@@H](O)[C@H](C)O2)[C@H](C)[C@@H](O[C@@H]2O[C@H](C)C[C@H](N(C)C)[C@H]2O)[C@](C)(O)C[C@@H](C)C(=O)[C@H](C)[C@@H](O)[C@]1(C)O [Ery, erythromycin], the “Effectiveness of antibiotics against strains of marine bacteria” value (commercial antibiotic discs, in words) was “effective against most of the strains of marine bacteria”, the zone of inhibition at 5 µg/disc (strain 1 (Rhodovulum)) was < 6 mm and the zone of inhibition at 15 µg/disc (strain 1 (Rhodovulum)) was < 6 mm. For the same compound, the zone of inhibition at 5 µg/disc (strain 2 (Erythrobacter)) was < 6 mm, the zone of inhibition at 15 µg/disc (strain 2 (Erythrobacter)) was 20 to 29 mm and the zone of inhibition at 5 µg/disc (strain 3 (Erythrobacter)) was 10 to 19 mm. For the same compound, the zone of inhibition at 15 µg/disc (strain 3 (Erythrobacter)) was 20 to 29 mm, the zone of inhibition at 5 µg/disc (strain 4 (Bacillus)) was > 40 mm and the zone of inhibition at 15 µg/disc (strain 4 (Bacillus)) was 30 to 39 mm. The zone of inhibition at 5 µg/disc (strain 6 (Vibrio)) was < 6 mm, the zone of inhibition at 15 µg/disc (strain 6 (Vibrio)) was 10 to 19 mm and the zone of inhibition at 5 µg/disc (strain 7 (Vibrio)) was 10 to 19 mm. For the same compound, the zone of inhibition at 15 µg/disc (strain 7 (Vibrio)) was 10 to 19 mm, the zone of inhibition at 5 µg/disc (strain 8 (Bacillus)) was 20 to 29 mm and the zone of inhibition at 15 µg/disc (strain 8 (Bacillus)) was 30 to 39 mm. For the same compound, the zone of inhibition at 5 µg/disc (strain 9 (Bacillus)) was 30 to 39 mm, the zone of inhibition at 15 µg/disc (strain 9 (Bacillus)) was 30 to 39 mm and the zone of inhibition at 5 µg/disc (strain 10 (Halobacillus)) was 30 to 39 mm. The zone of inhibition at 15 µg/disc (strain 10 (Halobacillus)) was > 40 mm, the zone of inhibition at 5 µg/disc (strain 11 (Pseudomonas)) was 20 to 29 mm and the zone of inhibition at 15 µg/disc (strain 11 (Pseudomonas)) was 20 to 29 mm. The zone of inhibition at 5 µg/disc (strain 12 (Gordonia)) was < 6 mm, the zone of inhibition at 15 µg/disc (strain 12 (Gordonia)) was 10 to 19 mm and the zone of inhibition at 5 µg/disc (strain 13 (Bacillus)) was 20 to 29 mm. The zone of inhibition at 15 µg/disc (strain 13 (Bacillus)) was 20 to 29 mm, the zone of inhibition at 5 µg/disc (strain 14 (Vibrio)) was < 6 mm and the zone of inhibition at 15 µg/disc (strain 14 (Vibrio)) was 10 to 19 mm. The zone of inhibition at 5 µg/disc (strain 16 (Pseudoalteromonas)) was 10 to 19 mm, the zone of inhibition at 15 µg/disc (strain 16 (Pseudoalteromonas)) was 6 to 9 mm and the zone of inhibition at 5 µg/disc (strain 17 (Gordonia)) was > 40 mm. The zone of inhibition at 15 µg/disc (strain 17 (Gordonia)) was > 40 mm, the zone of inhibition at 5 µg/disc (strain 18 (Microbacterium)) was 6 to 9 mm and the zone of inhibition at 15 µg/disc (strain 18 (Microbacterium)) was 10 to 19 mm. The zone of inhibition at 5 µg/disc (strain 19 (Erythrobacter)) was 20 to 29 mm, the zone of inhibition at 15 µg/disc (strain 19 (Erythrobacter)) was 20 to 29 mm and the zone of inhibition at 5 µg/disc (strain 20) was 10 to 19 mm. For the same compound, the zone of inhibition at 15 µg/disc (strain 20) was 20 to 29 mm, the zone of inhibition at 5 µg/disc (strain 21) was 20 to 29 mm and the zone of inhibition at 15 µg/disc (strain 21) was 20 to 29 mm. The zone of inhibition at 5 µg/disc (strain 22) was 10 to 19 mm, the zone of inhibition at 15 µg/disc (strain 22) was 30 to 39 mm and the zone of inhibition at 5 µg/disc (strain 24) was 20 to 29 mm. For the same compound, the zone of inhibition at 15 µg/disc (strain 24) was 20 to 29 mm, the zone of inhibition at 5 µg/disc (strain 26) was 20 to 29 mm and the zone of inhibition at 15 µg/disc (strain 26) was 20 to 29 mm. It also gave a zone of inhibition at 5 µg/disc (strain 27) of 20 to 29 mm, a zone of inhibition at 15 µg/disc (strain 27) of 20 to 29 mm and a zone of inhibition at 5 µg/disc (strain 28) of 20 to 29 mm. The zone of inhibition at 15 µg/disc (strain 28) was 20 to 29 mm, the zone of inhibition at 5 µg/disc (strain 29) was 30 to 39 mm and the zone of inhibition at 15 µg/disc (strain 29) was 20 to 29 mm. The zone of inhibition at 5 µg/disc (strain 30) was 20 to 29 mm and the zone of inhibition at 15 µg/disc (strain 30) was 20 to 29 mm.
